Counter-ions that a name gives are not always drawn. Calls of active or inactive are those of the source.
Assays:
[1] = target: T1, Oxysterols receptor LXR-beta (Homo sapiens, UniProt P55055); type: functional, cell-based;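 also: Cell-based luminescence dose-response assay of agonist activity at LXR, run as a confirmatory counterscreen to a daf-12 agonist screen; HEK293 cells with Gal4-LXR fusion and GAL4-driven luciferase reporter; agonist potency from rising luciferase signal of a Gal4-LXR reporter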
T1 sequence (P55055 whole entry): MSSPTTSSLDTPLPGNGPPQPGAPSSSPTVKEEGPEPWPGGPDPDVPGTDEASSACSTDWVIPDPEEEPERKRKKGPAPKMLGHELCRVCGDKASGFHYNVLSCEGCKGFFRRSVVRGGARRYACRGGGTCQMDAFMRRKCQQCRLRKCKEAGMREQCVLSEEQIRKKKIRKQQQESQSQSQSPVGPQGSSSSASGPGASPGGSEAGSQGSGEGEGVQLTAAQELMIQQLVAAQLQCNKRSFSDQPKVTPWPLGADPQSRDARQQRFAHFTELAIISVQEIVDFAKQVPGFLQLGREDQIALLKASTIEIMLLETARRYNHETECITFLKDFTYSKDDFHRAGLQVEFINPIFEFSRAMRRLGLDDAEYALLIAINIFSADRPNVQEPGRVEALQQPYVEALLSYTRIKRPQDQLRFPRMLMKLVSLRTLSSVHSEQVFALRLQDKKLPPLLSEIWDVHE

cells [2] = assay: cells
[3] = target: T2, Heat shock factor protein 1 (Mus musculus, UniProt P38532); assay: decrease of HSF1-responsive luciferase luminescence – cell-based, NIH3T3, dose retest, confirmation (AID 2382); type: functional;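 also: NIH3T3 fibroblasts with HSF1-driven luciferase reporter stressed by proteasome inhibitor MG132; luminescence from HSF1-driven luciferase expression after 8 hours of MG132 stress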
T2 sequence (P38532 whole entry): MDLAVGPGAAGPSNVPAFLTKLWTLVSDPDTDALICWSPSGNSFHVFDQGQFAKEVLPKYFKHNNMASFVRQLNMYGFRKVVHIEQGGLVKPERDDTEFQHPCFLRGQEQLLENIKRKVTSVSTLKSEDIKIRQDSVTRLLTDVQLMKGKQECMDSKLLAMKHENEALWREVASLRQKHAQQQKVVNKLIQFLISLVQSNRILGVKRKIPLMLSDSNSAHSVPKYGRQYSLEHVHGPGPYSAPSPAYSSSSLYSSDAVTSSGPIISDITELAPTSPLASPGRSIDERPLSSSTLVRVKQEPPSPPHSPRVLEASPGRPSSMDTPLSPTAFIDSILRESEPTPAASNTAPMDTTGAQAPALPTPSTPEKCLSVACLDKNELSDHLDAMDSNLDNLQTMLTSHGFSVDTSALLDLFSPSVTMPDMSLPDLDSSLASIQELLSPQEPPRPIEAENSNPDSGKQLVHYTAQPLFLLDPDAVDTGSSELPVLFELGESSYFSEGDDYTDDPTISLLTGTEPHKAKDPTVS

[4] = viability of uninfected HEp-2 cells – cell-based, HTS, cytotoxicity control for RSV inhibitor project, dose response (AID 2410); type: functional; conditions: human respiratory syncytial virus
[5] = system: Streptococcus sp. 'group A'; assay: Streptococcus pyogenes SK(-)GAS viability under kanamycin – luminescence, BacTiterGlo, confirmation, counter-screen for streptokinase expression inhibitor project, dose response (AID 1900); type: functional, organism-based
[6] = A Cell Based Secondary Assay To Explore Cytotoxicity of Compounds that Sensitize Mycobacterium Tuberculosis to Beta-Lactam Antibiotics.; type: functional
Streptokinase A = target: T3, Streptokinase A (Streptococcus pyogenes serotype M1, UniProt P10520); assay: viability-normalized secreted streptokinase activity reduction – plasminogen activation absorbance, OD405, dose response (AID 1914); type: functional, Streptococcus pyogenes M1 GAS;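 also: secreted streptokinase activity via plasminogen activation per viability signal from cell pellet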
T3 sequence (P10520 whole entry): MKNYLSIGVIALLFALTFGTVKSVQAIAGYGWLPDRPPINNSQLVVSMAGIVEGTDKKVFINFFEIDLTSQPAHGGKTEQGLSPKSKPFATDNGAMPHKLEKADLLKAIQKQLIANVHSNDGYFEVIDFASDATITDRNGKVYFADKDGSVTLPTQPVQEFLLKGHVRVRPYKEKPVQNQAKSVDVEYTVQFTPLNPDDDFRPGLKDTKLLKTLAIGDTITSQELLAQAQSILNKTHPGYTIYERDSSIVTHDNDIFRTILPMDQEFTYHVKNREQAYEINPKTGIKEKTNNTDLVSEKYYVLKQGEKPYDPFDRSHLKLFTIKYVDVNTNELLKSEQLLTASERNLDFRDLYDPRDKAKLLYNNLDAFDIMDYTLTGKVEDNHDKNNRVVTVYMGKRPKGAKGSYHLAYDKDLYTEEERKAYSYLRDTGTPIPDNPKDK

[7] = Trypanosoma cruzi growth suppression in host cells – NIH3T3 host cells, beta-gal luminescence, confirmation (AID 2044); type: functional, cell-based;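 also: intracellular parasites grown in NIH/3T3 mouse fibroblasts as host cells; luminescent beta-galactosidase reporter signal from transgenic T. cruzi replicating inside host cells; inhibitors lower the luminescence signal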
[8] = NIH3T3 cell viability loss – ATP luminescence, mouse fibroblasts, counter-screen, dose response (AID 2010); type: functional, cell-based;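 also: cells exposed to compound for about 90 hours before reading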
Streptococcus = assay: GAS UMAA2166 growth inhibition – luminescence, BacTiterGlo, counter-screen for streptokinase expression inhibitor project, dose response (AID 1915); type: functional, organism-based;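 also: potency for reduction of bacterial viability or growth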
[9] = P. falciparum Dd2 growth inhibitors, dose response, SYBR Green, cherry-picked samples (AID 1159567); type: functional, cell-based
[10] = toxicity to human hepatoma HepG2 cells – cell-based, cherry-picked samples, cytotoxicity control, dose response (AID 1159577); type: functional
[11] = growth inhibition of yeast DHODH-expressing 3D7 parasites – SYBR Green, dry powder samples, dose response (AID 1159570); type: functional, cell-based;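 also: parasite growth measured after 72 hours of compound exposure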
[12] = toxicity to human HepG2 hepatoma cells – cell-based, plate reader, dry powder samples, cytotoxicity control, dose response (AID 1159569); type: functional;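 also: inhibitor potency with signal falling toward the positive control level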
[13] = Dd2 malaria parasite growth inhibition potency – SYBR Green, dry powder samples, dose response (AID 1159566); type: functional, cell-based;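 also: potency for growth inhibition with lower SYBR green DNA signal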
[14] = growth inhibition of PfATP4-mutant resistant parasites – NITD609-resistant line, SYBR Green, dry powder, dose response (AID 1159571); type: functional, cell-based;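 also: parasites synchronized at ring stage by sorbitol before testing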
[15] = target: Voltage-gated inwardly rectifying potassium channel KCNH2 (Homo sapiens, UniProt Q12809); conditions: Potency;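 also: confirmatory quantitative high-throughput screen measuring inhibition of hERG channel activity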
Sequence of Voltage-gated inwardly rectifying potassium channel KCNH2 (Q12809 whole entry): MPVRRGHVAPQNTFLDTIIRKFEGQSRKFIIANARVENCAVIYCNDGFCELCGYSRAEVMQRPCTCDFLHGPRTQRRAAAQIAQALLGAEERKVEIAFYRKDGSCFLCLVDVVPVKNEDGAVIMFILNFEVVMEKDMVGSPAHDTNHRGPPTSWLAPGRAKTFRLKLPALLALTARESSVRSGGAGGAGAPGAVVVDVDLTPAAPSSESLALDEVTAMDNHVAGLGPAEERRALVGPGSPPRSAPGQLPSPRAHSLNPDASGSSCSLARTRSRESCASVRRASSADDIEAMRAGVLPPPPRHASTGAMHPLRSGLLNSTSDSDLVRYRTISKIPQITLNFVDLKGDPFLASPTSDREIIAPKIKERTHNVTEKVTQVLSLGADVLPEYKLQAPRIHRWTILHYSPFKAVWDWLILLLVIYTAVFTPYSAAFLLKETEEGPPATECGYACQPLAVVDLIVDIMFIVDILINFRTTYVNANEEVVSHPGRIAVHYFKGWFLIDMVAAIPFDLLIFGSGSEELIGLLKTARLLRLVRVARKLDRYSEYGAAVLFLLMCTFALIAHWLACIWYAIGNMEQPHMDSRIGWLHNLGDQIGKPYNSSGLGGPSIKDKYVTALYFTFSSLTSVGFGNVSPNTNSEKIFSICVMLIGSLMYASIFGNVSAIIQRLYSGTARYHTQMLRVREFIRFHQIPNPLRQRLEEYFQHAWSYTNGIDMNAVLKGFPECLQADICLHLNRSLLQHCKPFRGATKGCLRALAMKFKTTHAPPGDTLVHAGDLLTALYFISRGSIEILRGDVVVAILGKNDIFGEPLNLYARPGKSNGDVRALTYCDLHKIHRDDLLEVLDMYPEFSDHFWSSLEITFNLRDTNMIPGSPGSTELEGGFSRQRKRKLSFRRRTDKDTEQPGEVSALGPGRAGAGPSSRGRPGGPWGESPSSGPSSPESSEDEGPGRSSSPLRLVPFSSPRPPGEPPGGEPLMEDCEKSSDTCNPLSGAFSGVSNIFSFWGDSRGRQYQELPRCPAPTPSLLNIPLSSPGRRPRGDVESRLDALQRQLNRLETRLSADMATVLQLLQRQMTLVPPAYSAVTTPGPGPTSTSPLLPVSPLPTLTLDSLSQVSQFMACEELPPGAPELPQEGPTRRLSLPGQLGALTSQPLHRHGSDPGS

[16] = target: 5-hydroxytryptamine receptor 2A (Mus musculus, UniProt P35363); type: functional, cell-based;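 also: CHO-K1 cells with tagged receptor and beta-arrestin; agonist potency measured as compound-induced activation of the receptor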
Sequence of 5-hydroxytryptamine receptor 2A (P35363 whole entry): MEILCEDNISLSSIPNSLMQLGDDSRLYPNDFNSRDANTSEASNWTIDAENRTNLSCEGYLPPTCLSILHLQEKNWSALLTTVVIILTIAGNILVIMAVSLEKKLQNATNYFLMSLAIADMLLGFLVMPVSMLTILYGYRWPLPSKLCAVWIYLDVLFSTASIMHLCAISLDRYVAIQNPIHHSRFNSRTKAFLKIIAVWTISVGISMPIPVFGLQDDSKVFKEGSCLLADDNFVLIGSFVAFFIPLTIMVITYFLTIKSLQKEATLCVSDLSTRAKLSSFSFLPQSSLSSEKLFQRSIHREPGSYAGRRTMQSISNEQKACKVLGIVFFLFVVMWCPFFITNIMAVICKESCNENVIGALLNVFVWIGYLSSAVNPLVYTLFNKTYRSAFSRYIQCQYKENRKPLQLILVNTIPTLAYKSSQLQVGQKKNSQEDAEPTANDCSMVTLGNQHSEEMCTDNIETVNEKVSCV

cells [17] = type: functional, cell-based
[18] = target: T4, Nuclear receptor subfamily 0 group B member 1 (Homo sapiens, UniProt P51843); type: functional, cell-based;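 also: HEK293T cells transfected with SF-1 and DAX-1 plus StAR promoter luciferase reporter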
T4 sequence (P51843 whole entry): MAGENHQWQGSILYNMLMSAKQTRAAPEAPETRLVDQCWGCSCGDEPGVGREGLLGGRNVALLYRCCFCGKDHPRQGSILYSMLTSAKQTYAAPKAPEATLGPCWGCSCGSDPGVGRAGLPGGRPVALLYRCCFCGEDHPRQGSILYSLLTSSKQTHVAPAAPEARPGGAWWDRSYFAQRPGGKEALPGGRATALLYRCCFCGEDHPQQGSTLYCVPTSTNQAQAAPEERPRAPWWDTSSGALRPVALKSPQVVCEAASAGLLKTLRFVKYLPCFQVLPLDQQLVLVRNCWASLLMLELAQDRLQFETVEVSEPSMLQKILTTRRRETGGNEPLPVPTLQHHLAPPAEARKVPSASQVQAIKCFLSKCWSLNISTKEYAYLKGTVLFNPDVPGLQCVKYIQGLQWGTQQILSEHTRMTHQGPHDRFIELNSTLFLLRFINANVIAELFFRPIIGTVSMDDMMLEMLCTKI

O=C(NC1=NCCS1)c1sc2cc(F)ccc2c1Cl
EC50 [1]: > 67.6 µM (inactive) | EC50 (cells [2]): > 67.6 µM (inactive)

Cc1ccc2[nH]c(-c3sc4nc(C)cc(C)c4c3N)nc2c1
EC50 [3]: 21 µM (active) | EC50 [1]: > 67.5 µM (inactive) | EC50 (cells [2]): > 67.5 µM (inactive)

CCn1c(=O)n(CC)c2cc(N3CCCC3)c(NC(=O)c3cc(Br)ccc3OC)cc21
CC50 [4]: 16.4 µM (active) | EC50 [5]: 7.36 µM (active) | CC50 [6]: 37.6 µM (active) | EC50 (Streptokinase A): 18.5 µM (active) | EC50 [7]: 990 nM (active) | EC50 [8]: 12 µM (active) | EC50 (Streptococcus): 11.2 µM (active)

CC(=O)n1cc([C@@H]2C=C(C(=O)N3CCN(Cc4ccc5c(c4)OCO5)CC3)O[C@H](OCCCCO)C2)c2ccccc21
CC50 [6]: > 40 µM (active)

O=C(c1c(Cl)nc2sccn12)N(C(=O)c1c(Cl)nc2sccn12)c1ccc(Cl)cn1
EC50 [1]: > 67.5 µM (inactive) | EC50 (cells [2]): > 67.5 µM (inactive)

C[C@@H]1CN([C@@H](C)CO)C(=O)c2cc(NC(=O)Nc3ccc(C(F)(F)F)cc3)ccc2O[C@H]1CN(C)CC1CCCCC1
AC50 [9]: 10.6 µM (active) | AC50 [10]: 22 µM (active)

COc1ccccc1NC(=O)N1CCCCN2[C@@H](CO)[C@H](c3ccc(C#CC4CCCC4)cc3)[C@@H]2C1
AC50 [11]: 425 nM (active) | AC50 [12]: 10.6 µM (active) | AC50 [9]: 1.98 µM (active) | AC50 [13]: 386 nM (active) | AC50 [10]: 17.4 µM (active) | AC50 [14]: 458 nM (active)

COc1cccc(-c2cccc(-c3nc(C(=O)Nc4ccc(-c5ccccc5)cc4)cc4c3[C@@H](CCO)N([S+]([O-])C(C)(C)C)C4)c2)c1 (stereo not given in full)
AC50 [9]: 2.71 µM (active) | AC50 [10]: 15.2 µM (active)

CN1C(=O)CCC1c1cccnc1 (stereo not given)
AC50 [15]: 3.16 µM (inconclusive)

CNCC(O)c1ccc(O)c(O)c1 (stereo not given) [RACEPINEPHRINE HYDROCHLORIDE]
EC50 [16]: 1.39 µM (active) | IC50 (cells [17]): > 67.6 µM (inactive) | IC50 [18]: > 67.6 µM (inactive) | AC50 [15]: 12.6 µM (inconclusive)

Reference: ChEMBL document CHEMBL1201862, “PubChem BioAssay data set” (2004)
